Measurements as given in patent publication US9238626B2 (priority 2012, dated 2016).
Counter-ions that a name gives are not always drawn. Like-named read-outs stand apart in the source and are kept apart here.

Assays:
[1] = target: β-Secretase (BACE-1) (Homo sapiens (Human), UniProt P56817); assay: β-Secretase (BACE-1) inhibition assay; format: biochemical; details: read-out: BACE-1 IC50
Procedure: β-Secretase (BACE-1, Sigma) inhibition studies were performed by employing a peptide mimicking APP sequence as substrate (methoxycoumarin-[…]dinitrophenyl, M-2420, Bachem). The following procedure was employed: 5 μL of test compound (or DMSO, if preparing a control well) were pre-incubated with 175 μL of the enzyme (in 20 mM sodium acetate containing CHAPS 0.1% w/v) for 1 h at room temperature. The substrate (3 μM, final concentration) was then added and left to react for 15 min. The fluorescence signal was read at λem=405 nm (λexc=320 nm). […] The fluorescence intensities with and without inhibitor were compared and the percent inhibition due to the presence of test compounds was calculated. The background signal was measured in control wells containing all the reagents, except BACE-1 and subtracted. […] Inhibition curves were obtained by plotting the % inhibition versus the logarithm of inhibitor concentration in the assay sample. The linear regression parameters were determined and the IC50 extrapolated (GraphPad Prism 4.0, GraphPad Software Inc.).

[2] = tested on: APP-PS1 mice; assay: Neuroinflammation (astrogliosis, anti-GFAP immunostaining) in APP-PS1 mice; format: in vivo, mouse
[3] = tested on: APP-PS1 mice; assay: Electrophysiology (LTP) in hippocampal slices from treated APP-PS1 mice; format: in vivo, mouse; details: for LTP magnitude at 60 min: compared with untreated brain slices; for LTP generation (in words): slices from treated APP-PS1 mice
[4] = tested on: APP-PS1 mice; assay: Total load of brain amyloid deposits in APP-PS1 mice (Aβ 6E10 immunodetection); format: in vivo, mouse
[5] = 7-month-old APP-PS1 mice, FIG. 9A
[6] = 11-month-old APP-PS1 mice, FIG. 9B
[7] = 7-month-old APP-PS1 mice, FIG. 7A
[8] = 11-month-old APP-PS1 mice, FIG. 7B

β-Secretase (BACE-1), sequence (P56817 46-501): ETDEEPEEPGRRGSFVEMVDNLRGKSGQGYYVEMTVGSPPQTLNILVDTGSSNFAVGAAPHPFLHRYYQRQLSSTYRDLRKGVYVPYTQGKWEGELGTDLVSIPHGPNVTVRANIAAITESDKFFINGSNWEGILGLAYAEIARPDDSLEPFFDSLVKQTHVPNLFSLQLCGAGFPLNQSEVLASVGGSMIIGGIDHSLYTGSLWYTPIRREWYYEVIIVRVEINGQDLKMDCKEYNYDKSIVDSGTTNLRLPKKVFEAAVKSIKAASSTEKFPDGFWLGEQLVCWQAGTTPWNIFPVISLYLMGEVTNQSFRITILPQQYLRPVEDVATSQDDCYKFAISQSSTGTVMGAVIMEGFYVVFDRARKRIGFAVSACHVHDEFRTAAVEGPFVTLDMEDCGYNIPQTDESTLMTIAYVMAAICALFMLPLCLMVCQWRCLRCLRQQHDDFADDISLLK

Structure (SMILES): CC1=C[C@H]2Cc3nc4cc(Cl)ccc4c(NCCCCCCCCCNC(=O)c4cc(O)c5c(c4)C(=O)c4cccc(O)c4C5=O)c3[C@@H](C1)C2 [(+)-(Ib)•HCl, (+)-(7R,11R)—N-{9-[(3-chloro-6,7,10,11-tetrahydro-9-methyl-7,11-methanocycloocta[b]quinolin-12-yl)amino]nonyl}-9,10-dihydro-4,5-dihydroxy-9,10-dioxoanthracene-2-carboxamide]
- IC50 [1]: 80 ± 10 nM
- IC50 ([1]; stated in text): 80 nM
- area occupied by hyper-reactive astrocytes (GFAP), inflammatory response [2, 5]: decrease in the inflammatory response
- area occupied by hyper-reactive astrocytes (GFAP), inflammatory response [2, 6]: decrease in the inflammatory response
- LTP magnitude at 60 min [3]: 150%
- LTP generation (in words) [3]: able to generate LTP
- Aβ load, hippocampus [4, 7]: diminished the load levels of Aβ oligomers
- Aβ-positive aggregate area, brain cortex [4, 7]: significant reduction
- total Aβ load, cortex [4, 8]: reduction in total Aβ load
- total Aβ load, hippocampus [4, 8]: reduction in total load of Aβ

Structure (SMILES): CC1=C[C@@H]2Cc3nc4cc(Cl)ccc4c(NCCCCCCCCCNC(=O)c4cc(O)c5c(c4)C(=O)c4cccc(O)c4C5=O)c3[C@H](C1)C2 [(−)-(Ib)•HCl, (−)-(7S,11S)—N-{9-[(3-chloro-6,7,10,11-tetrahydro-9-methyl-7,11-methanocycloocta[b]quinolin-12-yl)amino]nonyl}-9,10-dihydro-4,5-dihydroxy-9,10-dioxoanthracene-2-carboxamide]
- IC50 [1]: 80 ± 10 nM
- IC50 ([1]; stated in text): 80 nM
- area occupied by hyper-reactive astrocytes (GFAP), inflammatory response [2, 5]: decrease in the inflammatory response
- area occupied by hyper-reactive astrocytes (GFAP), inflammatory response [2, 6]: decrease in the inflammatory response
- LTP magnitude at 60 min [3]: 150%
- LTP generation (in words) [3]: able to generate LTP
- Aβ-positive aggregate area, brain cortex [4, 7]: significant reduction
- total Aβ load, cortex [4, 8]: reduction in total Aβ load
